This passage reports Kd results from ChEMBL document CHEMBL1130491, “Nonpeptide bradykinin antagonist analogs based on a model of a Sterling-Winthrop nonpeptide bradykinin antagonist overlapped with cyclic hexapeptide bradykinin antagonist peptides” (Bioorg Med Chem Lett, 1997).

One may read the Kd as a measure of binding affinity in units of concentration. Low values mean higher affinity, high ones lower affinity.

One assay deals with Substance-P receptor (Homo sapiens, UniProt P25103). As to the kind of experiment: Binding affinity towards Tachykinin receptor 1, activity expressed as Kd.
Assay [1] in a line: Binding affinity towards human Bradykinin receptor, activity expressed as Kd.

Sequence of Substance-P receptor (P25103 whole entry): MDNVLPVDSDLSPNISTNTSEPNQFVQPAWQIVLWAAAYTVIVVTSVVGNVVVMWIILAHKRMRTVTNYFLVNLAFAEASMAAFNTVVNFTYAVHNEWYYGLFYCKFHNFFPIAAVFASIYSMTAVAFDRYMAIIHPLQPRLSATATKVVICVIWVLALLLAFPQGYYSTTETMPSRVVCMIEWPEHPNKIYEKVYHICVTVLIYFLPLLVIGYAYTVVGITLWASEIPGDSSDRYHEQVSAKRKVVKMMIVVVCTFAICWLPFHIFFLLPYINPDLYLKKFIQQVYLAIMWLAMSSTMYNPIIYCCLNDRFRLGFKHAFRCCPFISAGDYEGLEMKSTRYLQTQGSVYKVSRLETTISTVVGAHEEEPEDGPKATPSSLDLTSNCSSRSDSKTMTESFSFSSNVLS

Consider `CCCC[N+](CCCC)(CCCC)Cc1ccc(NC(=O)[C@@H](Cc2ccc3ccccc3c2)N=C(NC2CCCCC2)NC2CCCCC2)cc1`, for which the Kd on Substance-P receptor was determined as 290 nM; in assay [1] it was 79 nM. `NCc1ccc(NC(=O)[C@@H](Cc2ccc3ccccc3c2)N=C(NC2CCCCC2)NC2CCCCC2)cc1` returned a dissociation constant (Kd) in assay [1] of 450 nM. As for `N=C(N)NCc1ccc(NC(=O)[C@H](Cc2ccc3ccccc3c2)N=C(NC2CCCCC2)NC2CCCCC2)cc1`, the values for the Kd (at Substance-P receptor; in assay [1]) were 1100 nM and 330 nM, respectively. The corresponding values for `CCCC[N+](CCCC)(CCCC)Cc1ccc(NC(=O)[C@H](Cc2ccc3ccccc3c2)N=C(NC2CCCCC2)NC2CCCCC2)cc1` are 540 nM and 98 nM. Compound `O=C(Nc1ccc(CO)cc1)[C@H](Cc1ccc2ccccc2c1)N/C(=N/C1CCCCC1)NC1CCCCC1` showed a Kd in assay [1] of 2100 nM.

In assay [1], `N=C(N)NCCC[C@@H](NC(=O)C12CC3CC(CC(C3)C1)C2)C(=O)NCc1ccc(NC(=O)[C@H](Cc2ccc3ccccc3c2)N=C(NC2CCCCC2)NC2CCCCC2)cc1` showed a Kd of 990 nM. `NC(N)=NCCC[C@H](N)C(=O)NCc1ccc(NC(=O)[C@H](Cc2ccc3ccccc3c2)N=C(NC2CCCCC2)NC2CCCCC2)cc1`: the figures for the Kd (at Substance-P receptor; in assay [1]) were 1500 nM and 390 nM, respectively. The corresponding values for `CCCC[P+](CCCC)(CCCC)Cc1ccc(NC(=O)[C@H](Cc2ccc3ccccc3c2)N=C(NC2CCCCC2)NC2CCCCC2)cc1` are 670 nM and 340 nM.

On to `CCCC[P+](CCCC)(CCCC)Cc1ccc(NC(=O)[C@H](Cc2ccc3ccccc3c2)NC(=O)NC2CCCCC2)cc1`, for which the Kd amounted to 1300 nM on Substance-P receptor and 1600 nM in assay [1]. The corresponding values for `CCCC[P+](CCCC)(CCCC)Cc1ccc(NC(=O)[C@@H](Cc2ccc3ccccc3c2)N=C(NC2CCCCC2)NC2CCCCC2)cc1` are 370 nM and 44 nM.

As to `O=C(Nc1ccc(CO)cc1)[C@@H](Cc1ccc2ccccc2c1)N=C(NC1CCCCC1)NC1CCCCC1`, the Kd in assay [1] was 1500 nM.

In the case of `CC/N=C(\NCC)NCc1ccc(NC(=O)[C@H](Cc2ccc3ccccc3c2)N=C(NC2CCCCC2)NC2CCCCC2)cc1`, the Kd at Substance-P receptor was 1800 nM; in assay [1] it was 460 nM. The corresponding values for `NCc1ccc(NC(=O)[C@H](Cc2ccc3ccccc3c2)N=C(NC2CCCCC2)NC2CCCCC2)c(C(=O)O)c1` are 3800 nM and 690 nM. With `NCc1ccc(N(CCC(=O)O)C(=O)[C@H](Cc2ccc3ccccc3c2)N=C(NC2CCCCC2)NC2CCCCC2)cc1`, the Kd in assay [1] worked out at 1500 nM. As for `N=C(N)NCc1ccc(NC(=O)[C@@H](Cc2ccc3ccccc3c2)N=C(NC2CCCCC2)NC2CCCCC2)cc1`, the Kd is 860 nM on Substance-P receptor and 200 nM in assay [1].

In the case of `NCc1ccc(NC(=O)[C@H](Cc2ccc3ccccc3c2)N=C(NC2CCCCC2)NC2CCCCC2)cc1`, the results for the Kd (at Substance-P receptor; in assay [1]) were 1300 nM and 800 nM, respectively. `NC(N)=NCCC[C@@H](N)C(=O)NCc1ccc(NC(=O)[C@H](Cc2ccc3ccccc3c2)N=C(NC2CCCCC2)NC2CCCCC2)cc1` showed a Kd in assay [1] of 230 nM.
